# Data published in article PMC3849007 (Journal of Experimental & Clinical Cancer Research : CR, 2013).
# Where a name gives a salt, the structure may show the parent alone.
# Assays:
# [1] = system: h-Tel quadruplex (Q) DNA, 5'-biotin-d[AG3(T2AG3)3] (DNA, G4) AGGGTTAGGGTTAGGGTTAGGG; experiment: surface plasmon resonance; details: 200 mM KCl; 10 mM HEPES, 3 mM EDTA, 0.01% P20, pH 7.4
# [2] = system: Telomere dysfunction Induced Foci in BJ-EHLT fibroblasts; experiment: TIF analysis (γH2AX/TRF1 co-localization); format: cell-based, human; details: 24 hrs
# Procedure: (§1) Cells were fixed in 2% formaldehyde and permeabilized in 0.25% Triton X100 in PBS for 5 min at room temperature. For immunolabeling, cells were incubated with primary antibody, then washed in PBS and incubated with the secondary antibodies. The following primary antibodies were used: pAb and mAb anti-TRF1 (Abcam Ltd.; Cambridge UK); mAb (Upstate, Lake Placid, NY) and pAb anti-γH2AX (Abcam). The following secondary antibody were used: TRITC conjugated Goat anti Rabbit, FITC conjugated Goat anti Mouse (Jackson ImmunoResearch Europe Ltd., Suffolk, UK). Fluorescence signals were recorded by using a Leica DMIRE2 microscope equipped with a Leica DFC 350FX camera and elaborated by a Leica FW4000 deconvolution software (Leica, Solms, Germany). This system permits to focus single planes inside the cell generating 3D high-resolution images. For quantitative analysis of γH2AX positivity, 200 cells on triplicate slices were scored. For TIF’s analysis, in each nucleus a single plane was analyzed and at least 50 nuclei per sample were scored.
# BJ-EHLT fibroblasts = experiment: Proliferation assay, transformed fibroblasts; format: cell-based, human; details: 0.5 μM, culture day 2 to 8
# Procedure: (§2) BJ fibroblasts expressing hTERT (BJ-hTERT) or hTERT and SV40 early region (BJ-EHLT), were obtained as previously reported. Cells were grown in Dulbecco Modified Eagle Medium (D-MEM, Invitrogen Carlsbad, CA, USA) supplemented with 10% fetal calf serum, 2 mM L-glutamin and antibiotics.
# (§3) 5 × 10^4 cells were seeded in 60-mm Petri plates (Nunc, MasciaBrunelli, Milano, Italy) and 24 h after plating, 0.5 μM of freshly dissolved compound was added to the culture medium. Cell counts (Coulter Counter, Kontron Instruments, Milano, Italy) and viability (trypan blue dye exclusion) were determined daily, from day 2 to day 8 of culture.
# [3] = system: γH2AX in BJ-EHLT fibroblasts; experiment: Immunofluorescence for γH2AX (DNA damage response); format: cell-based, human; details: 0.5 μM, 24 hrs
# Procedure: as §1
# [4] = system: h-Tel (anti-parallel) quadruplex; experiment: CD thermal unfolding of h-Tel quadruplex; format: binding, human
# Procedure: CD spectra were recorded on an Applied Photophysics Pi-Star-180 spectrophotometer (Applied Photophysics Ltd, Surrey, UK). The optical system was configured with a 75 W Xe lamp, circular light polarizer and end-mounted photomultiplier. The instrument had previously been calibrated with (D)-camphorsulfonic acid. Temperature was regulated using a Neslab RTE-300 circulating programmable water bath (Neslab Inc). CD spectra were recorded at 298 K in a 10 mm path length cell over a wavelength range of 215–345 nm in steps of either 1 0r 2 nm, with 3 nm entrance/exit slit widths: the number of counts was set to 10,000 with adaptive sampling set to 500,000. The spectra were corrected by subtracting the spectrum of the same buffer solution of 100 mM potassium chloride and 10 mM potassium phosphate at pH 7.0. Annealing and melting profiles were recorded using a thermoelectric temperature controller (Melcor) on 4 μM DNA samples with and without 3.5 mol.equiv. of ligands using 0.5 K temperature increments and a cooling or heating rate of 0.2 K/min over the temperature range 298-368 K.
# This analysis was extended to examine the effects of ligand binding on thermal stability by measuring the unfolding curves at 290 nm of the complexes formed in K^+ solution, corresponding to the CD spectra shown in Figure 4a. Monitoring the thermal unfolding transition for h-Tel produces a sigmoidal unfolding curve with a transition mid-point Tm value of 72 ± 3°C (Figure 4c). All three ligands show significant effects in enhancing the stability of the quadruplex by shifting the Tm values to higher temperatures (∆Tm ~ 15-19°C compared to h-Tel without bound ligands) (Table 1).
# [5] = system: telomere aberrations in BJ-EHLT fibroblasts; experiment: Telomere FISH on metaphase spreads; format: cell-based, human; details: 0.5 μM, 72 hrs
# Procedure: For metaphase chromosome preparation cells were treated with demecolcine (Sigma, Milan, Italy) 0.1 mg/ml for 4 h and then harvested and washed in 75 mM KCl for 5 min at 37°C. After centrifugation cells were fixed in MeOH/acetic acid 3:1 overnight and then spread on slides. Hybridization with rhodamine-coupled PNA was performed as described. For each sample 20 metaphases per slice on triplicate were scored. Images of the metaphases were captured with a 100 × objective.
# [6] = system: h-Tel quadruplex DNA 5′-d[AGGG(TTAGGG)3]-3′; experiment: Surface plasmon resonance, quadruplex DNA; details: for Surface plasmon resonance K, Quadruplex (Q) DNA: 10 mM HEPES, 200 mM KCl, 3 mM EDTA, 0.01% P20, pH 7.4, equilibrium binding constant
# Text: Oligonucleotides 5′-biotin-d[AG3(T2AG3)3] quadruplex and 5′-biotin-CGA3T3C(CT)2GA3T3CG were purchased from Midland Certified Reagent Company (Midland, TX).
# In the present work these measurements were repeated comparing ligand binding to the same h-Tel sequence but with a different duplex sequence 5′-d[CGA3T3C(CT)2GA3T3CG]-3′ as comparator.
# BJ-hTERT fibroblasts = experiment: Proliferation assay, normal telomerised fibroblasts; format: cell-based, human; details: 0.5 μM, culture day 2 to 8
# Procedure: as §2, §3
# NCI60 panel = NCI60 panel growth inhibition; format: cell-based, human
# [7] = biological target: T1, human recombinant β2 adrenergic receptor (Homo sapiens, UniProt P07550); experiment: β2-adrenergic receptor binding assay (CHO expressing cells)
# T1 construct: expressed in transfected cells; host or cells: CHO
# T1 sequence (P07550 whole entry): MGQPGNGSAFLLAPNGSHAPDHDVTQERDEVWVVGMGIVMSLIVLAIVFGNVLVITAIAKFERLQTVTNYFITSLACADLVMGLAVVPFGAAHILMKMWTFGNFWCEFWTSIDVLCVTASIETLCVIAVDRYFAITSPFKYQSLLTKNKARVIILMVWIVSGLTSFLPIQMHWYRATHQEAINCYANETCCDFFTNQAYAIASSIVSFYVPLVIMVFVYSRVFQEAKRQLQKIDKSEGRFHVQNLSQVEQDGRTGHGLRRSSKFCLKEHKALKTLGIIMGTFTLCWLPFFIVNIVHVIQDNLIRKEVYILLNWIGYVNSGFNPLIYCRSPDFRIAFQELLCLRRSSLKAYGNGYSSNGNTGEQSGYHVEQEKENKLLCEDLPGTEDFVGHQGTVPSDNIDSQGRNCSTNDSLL
# Procedure: (§4) For hERG study, HEK293 cells were cultured (1–7 days) in DMEM/GlutaMax-1 + 10% FBS and were plated on collagen-coated dishes (about 2×10^4 cells/dish). The cell was held at -80 mV. A 50-millisecond pulse to -40 mV was delivered to measure the leaking currents, which were subtracted from the tail currents online. […] This paradigm was delivered once every 5 seconds to monitor the current amplitude. After the current amplitude stabilized, the test compound was delivered to the extracellular medium by a rapid solution changer perfusion system. During perfusion, the cell was repetitively stimulated with the protocol described above, and the current amplitude was continuously monitored. Data were acquired and analyzed by using pClamp (Axon Instruments), and Excel (Microsoft), and are reported as mean and individual values. The degree of inhibition (%) was obtained by measuring the tail current amplitude before and after drug superfusion (the difference current was normalized to control and multiplied by 100 to obtain the percent of inhibition). […] The concentration-response relationship of each compound was constructed from the percentage reductions of current amplitude by sequential concentrations. β2-adrenergic receptor CHO expressing cells were used for the receptor inhibition assay as described. The results are expressed as a percent of inhibition of control specific binding (100 - (measured specific binding/control specific binding) × 100)) obtained in the presence of the test compounds. The specific ligand binding to the receptors is defined as the difference between the total binding and the nonspecific binding determined in the presence of an excess of unlabelled ligand. All the in-vivo experiments were carried out at the Regina Elena Cancer Institute.
# Inhibition of receptor was reported as inhibition of control specific binding (100 - (measured specific binding/control specific binding) × 100) obtained in the presence of the test compounds.
# [8] = system: h-Tel 5'-d[AGGG(TTAGGG)3]-3' (DNA, G4) AGGGTTAGGGTTAGGGTTAGGG; experiment: CD melting at 290 nm; details: 110 mM K+ (100 mM KCl, potassium phosphate); 10 mM potassium phosphate, pH 7.0; 4 μM DNA, 3.5 mol equiv. ligand; Tm 89 ± 3
# [9] = system: h-Tel 5'-d[AGGG(TTAGGG)3]-3' (DNA, G4) AGGGTTAGGGTTAGGGTTAGGG; experiment: CD spectroscopy, induced anti-parallel structure; details: no significant K+; 298 K; 3.5 molar equivalents of ligand; band at 290 nm emerges
# [10] = system: duplex (D) DNA hairpin, 5'-biotin-CGA3T3C(CT)2GA3T3CG (DNA, hairpin) CGAAATTTCCTCTGAAATTTCG; experiment: surface plasmon resonance; details: 200 mM KCl; 10 mM HEPES, 3 mM EDTA, 0.01% P20, pH 7.4
# hERG = biological target: T2, hERG (Homo sapiens, UniProt Q12809); experiment: hERG tail current inhibition, patch clamp assay; format: cell-based; details: human, HEK293 cells (hERG study), 10 μM, HEK293 cells, read-out: hERG % inhib. (10 μM)
# T2 construct: expressed in transfected cells; host or cells: HEK293
# T2 sequence (Q12809 whole entry): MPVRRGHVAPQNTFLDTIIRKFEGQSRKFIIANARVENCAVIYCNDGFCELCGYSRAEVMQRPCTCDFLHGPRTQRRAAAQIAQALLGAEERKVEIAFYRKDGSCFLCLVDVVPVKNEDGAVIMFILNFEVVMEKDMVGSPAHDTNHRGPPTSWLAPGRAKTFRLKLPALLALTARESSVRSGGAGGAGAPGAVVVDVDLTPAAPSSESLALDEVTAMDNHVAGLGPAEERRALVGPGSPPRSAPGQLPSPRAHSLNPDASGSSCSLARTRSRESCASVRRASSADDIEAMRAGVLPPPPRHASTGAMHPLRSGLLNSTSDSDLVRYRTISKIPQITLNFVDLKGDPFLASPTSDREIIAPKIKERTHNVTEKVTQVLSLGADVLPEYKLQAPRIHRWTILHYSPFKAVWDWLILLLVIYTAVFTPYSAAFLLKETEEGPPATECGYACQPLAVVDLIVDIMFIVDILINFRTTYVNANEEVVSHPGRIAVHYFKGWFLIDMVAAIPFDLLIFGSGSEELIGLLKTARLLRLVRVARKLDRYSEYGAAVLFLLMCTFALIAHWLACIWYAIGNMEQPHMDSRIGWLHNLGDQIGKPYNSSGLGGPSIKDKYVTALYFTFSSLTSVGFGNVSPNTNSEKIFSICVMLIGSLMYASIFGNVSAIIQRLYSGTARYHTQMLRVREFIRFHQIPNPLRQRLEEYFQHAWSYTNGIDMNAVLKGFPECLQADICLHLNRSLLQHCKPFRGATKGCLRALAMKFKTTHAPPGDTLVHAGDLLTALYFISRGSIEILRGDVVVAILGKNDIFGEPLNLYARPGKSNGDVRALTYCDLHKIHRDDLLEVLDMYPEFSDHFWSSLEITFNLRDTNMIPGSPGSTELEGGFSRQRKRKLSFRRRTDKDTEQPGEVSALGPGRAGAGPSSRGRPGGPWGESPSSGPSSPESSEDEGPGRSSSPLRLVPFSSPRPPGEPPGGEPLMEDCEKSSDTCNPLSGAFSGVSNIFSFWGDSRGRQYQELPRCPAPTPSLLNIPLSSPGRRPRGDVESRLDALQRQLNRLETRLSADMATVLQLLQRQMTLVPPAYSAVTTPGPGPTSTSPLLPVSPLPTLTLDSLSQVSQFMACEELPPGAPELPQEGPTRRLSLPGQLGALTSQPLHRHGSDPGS
# Procedure: as §4, with “Institute. All procedures involving animals and care were performed in compliance with our institutional animal care guidelines and with international directives (directive 2010/63/EU of the European parliament and of the council; Guide for the Care and Use of Laboratory Animals, United States National Research Council, 2011).” for “Institute.”
smiles,measurement,setting,value
CC[n+]1c2c3c(cc(C)cc3c3cc(F)ccc31)N(C)c1ccc(F)cc1-2,K,[1],600000 M⁻¹
"CC[n+]1c2c3c(cc(C)cc3c3cc(F)ccc31)N(C)c1ccc(F)cc1-2 (as salt: sulfate) [Compound 8, 13-Ethyl-3,11-difluoro-6,8-dimethyl-8H-quino[4,3,2-kl]acridinium trifluoromethosulfate]",melting point,,> 250 °C (dec.)
"CC(=O)Nc1ccc2c3cccc4c3c([n+](C)c2c1)-c1ccccc1N4C [Compound 2, 2-Acetylamino-8,13-dimethyl-8H-quino[4,3,2-kl]-acridinium iodide]",percentage of TIF-positive cells,[2]; cells with more than four γH2AX/TRF1 co-localizations,comparable levels with respect to 1
same,number of TIFs per nucleus,[2]; mean,ca. eight
same,day of maximum effect on cell proliferation,BJ-EHLT fibroblasts,6 days
same,percentage of cells positive for γH2AX,[3],quite similar to compound 1
same,CD study thermal stability ∆Tm,[4]; compared to h-Tel without bound ligand (Tm 70 ± 3),19 °C
same,CD study thermal stability Tm,"[4]; h-Tel 4 μM with 3.5 mol.equiv. ligand, K+ solution, unfolding at 290 nm",89 ± 3 °C
same,"telomere aberrations (telomere doublets, sister telomere fusions)",[5],quantitatively similar to the lead compound
same,K,[1],1.5e+07 M⁻¹
same,"Surface plasmon resonance K, Quadruplex (Q) DNA",[6],1.5e+07 M⁻¹
same,inhibition of cell proliferation in normal telomerized fibroblasts,BJ-hTERT fibroblasts,did not induce inhibition of cell proliferation
same,GI50,"NCI60 panel; Homo sapiens, NCI data, read-out: Mean GI50 value from the NCI60 panel",12 µM
same,effect on cell proliferation in a panel of different histotype tumor cell lines,NCI60 panel; several human cancer cell lines,maintained an anti-proliferative effect
same,inhibition at 10 µM,"[7]; 10 μM, inhibition of control specific binding, CHO cells, read-out: B2 adrenergic % inhib. (10 μM)",24%
same,decay of β2-adrenergic receptor inhibition compared to 1,[7]; comparing 1 to the compound,75%
same,∆Tm,[8],19 °C
same,binding,[9],yes
same,K,[10],400000 M⁻¹
"CC[n+]1c2c3c(cc(C)cc3c3cc(F)ccc31)N(C)c1ccc(F)cc1-2 [Compound 8, 13-Ethyl-3,11-difluoro-6,8-dimethyl-8H-quino[4,3,2-kl]acridinium trifluoromethosulfate]",inhibition at 10 µM,hERG,18%
same,"Surface plasmon resonance K, Quadruplex (Q) DNA",[6],600000 M⁻¹
same,fold reduction in on-target effect against h-Tel DNA sequence (SPR) relative to 1,[6]; relative to compound 1,> 10 fold
